How the values were obtained:
serum LH = assay: LH suppression assay in mature male castrated rats, p.o.; format: in vivo, rat; settings: for oral activity (in words): statement in the introduction, test not named; for LH-Suppression MAD po: minimal active dose suppressing serum LH for 65%, castrated male rats, p.o. 4 days daily
Description: The in vivo potency of the compounds of the invention was determined in a mature male castrated rat model.
In this model serum LH is high (about 20× fold higher than with intact rats, due to the absence of the negative feedback of testicular testosterone). These rats are p.o. treated for 4 days daily with a given compound of the invention in a suspension fluid of arachis oil or arachis oil +5 or 10% ethanol. Before dosing and 3 hours after the last oral dose blood is collected via tail vein and in the serum LH is determined. Potency (p.o.) of the compounds of the invention (minimal active dose, MAD) is expressed as the amount (mg/kg) of a compound of the invention which suppresses serum LH for 65% (with a 95% confidence interval).
The rat LH Time-Resolved Immuno Fluorometric Assay (TR-IFMA) has been developed in house using home made reagents, a monoclonal catching antibody directed against the β-subunit of human chorion gonadotrophin (hCG, which cross reacts with rat β-subunit) and a biotin labelled detecting antibody (rabbit polydonal antibody directed against the alfa-subunit of recombinant rat LH). Recombinant rat LH was prepared according to known methods, e.g., the method described by Hakola et aL., Molecular & Cellular Endocrinology (1997), 128, 47-56. In this two-site-IFMA, only intact rat LH is determined by a final incubation with streptavidin-europium. The detection in the IFMA is based on fluorescence of the lanthanide europium during a relative long excitation period. The concentration range of rat LH standard is 0.001-10 ng/ml, for optimal accuracy measurements of serum LH serum samples were diluted 8-times with assay buffer (J. I. van Casteren et al., Biol. Reprod. (2000), 62, 886-894).

[1] = target: T1, human progesterone receptor B (hPRB) (Homo sapiens, UniProt P06401); assay: transactivative progestagenic agonistic activity, CHO cells transfected with hPRB, MMTV-luciferase; format: cell-based; parameters: Progestational Activity (%): concentration or dose not given beside the values; settings: for Progestational Activity (%): compared with (16α)-16-ethyl-21-hydroxy-19-norpregn-4ene-3,20-dione, CHO-hPRB, 16 h, 37° C.; for progestagenic activity (in words): statement in the introduction, test not named
T1 construct: expressed in transfected cells; host or cells: Chinese hamster ovary cells (CHO)
T1 sequence (P06401 1-933): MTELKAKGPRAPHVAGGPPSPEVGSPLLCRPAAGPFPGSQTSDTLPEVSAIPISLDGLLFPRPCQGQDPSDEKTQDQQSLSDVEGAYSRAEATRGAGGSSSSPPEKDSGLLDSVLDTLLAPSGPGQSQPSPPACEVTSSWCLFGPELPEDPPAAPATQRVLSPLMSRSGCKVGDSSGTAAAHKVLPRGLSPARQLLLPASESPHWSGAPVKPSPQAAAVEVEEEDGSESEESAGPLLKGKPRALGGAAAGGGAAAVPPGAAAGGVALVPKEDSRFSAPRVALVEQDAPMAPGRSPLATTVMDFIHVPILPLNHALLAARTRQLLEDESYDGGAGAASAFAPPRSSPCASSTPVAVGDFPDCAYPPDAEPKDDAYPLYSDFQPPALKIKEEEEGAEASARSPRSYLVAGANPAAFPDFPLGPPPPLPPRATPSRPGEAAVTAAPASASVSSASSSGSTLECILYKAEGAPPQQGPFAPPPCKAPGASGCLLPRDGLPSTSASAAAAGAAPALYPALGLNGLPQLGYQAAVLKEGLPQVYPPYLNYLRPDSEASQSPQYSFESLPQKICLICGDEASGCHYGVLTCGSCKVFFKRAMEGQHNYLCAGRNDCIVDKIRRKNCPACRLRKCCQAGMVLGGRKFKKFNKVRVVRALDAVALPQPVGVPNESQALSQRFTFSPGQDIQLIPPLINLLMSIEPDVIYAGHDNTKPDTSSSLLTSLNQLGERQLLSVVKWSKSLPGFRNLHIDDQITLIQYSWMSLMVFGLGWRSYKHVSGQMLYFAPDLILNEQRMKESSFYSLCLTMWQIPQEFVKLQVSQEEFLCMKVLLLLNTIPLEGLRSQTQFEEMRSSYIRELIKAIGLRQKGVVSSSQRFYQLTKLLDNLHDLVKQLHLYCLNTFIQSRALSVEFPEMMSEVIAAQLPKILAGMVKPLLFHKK
Description: (§1) The transactivative progestagenic agonistic activity of the compounds of the invention was measured in Chinese hamster ovary cells (CHO) transfected with the human progesterone receptor B (hPRB), in combination with a mouse mammary tumor virus (MMTV), and luciferase receptor gene (incubation time 16 h, temperature 37° C.) and compared with the activity of (16α)-16-ethyl-21-hydroxy-19-norpregn-4ene-3,20-dione [according to the procedure described by Schoonen, W. G. E. J. et al., Analyt. Biochem. 261, 222-224 (1998)].

[2] = Anti-osteoporosis test in mature male castrated rats (6 weeks treatment); format: in vivo, rat; settings: for Mean proportional difference in bone density: placebo intact 100%, placebo orx 0%; for BMD (gmean ± sem): orx male rats, trabecular BMD of femur
Description: In this test the oral efficacy of a compound of the invention for the prevention of castration-induced trabecular bone mineral density (BMD) loss in male rats was evaluated.
Mature male Wistar rats (350-400 g) were used. Orchidectomy (orx) or sham operation was performed under isoflurane anaesthesia. After recovery of anaesthesia, within 24 hours, rats were treated once daily for 6 weeks p.o. with different doses of the compounds of the invention or vehicle only (placebo intact, placebo orx) with a volume of 1 ml/kg (n=5). One day after the last administration autopsy is performed and the right femur is dissected out. Trabecular bone mineral density of the metaphysal part of the femur was measured with a pQCT (peripheral Quantitative Computed Tomography machine; XCT 960A, Stratec, Birkenfeld, Germany).

[3] = target: T2, human androgen receptor (hAR) (Homo sapiens, UniProt P10275); assay: transactivative androgen agonistic activity, CHO cells transfected with hAR, MMTV-luciferase; format: cell-based; parameters: Androgenic Activity (%): concentration or dose not given beside the values; settings: for Androgenic Activity (%): compared with 5α-dihydrotestosterone, CHO-hAR, 16 h, 37° C.
T2 construct: expressed in transfected cells; host or cells: Chinese hamster ovary cells (CHO)
T2 sequence (P10275 1-920): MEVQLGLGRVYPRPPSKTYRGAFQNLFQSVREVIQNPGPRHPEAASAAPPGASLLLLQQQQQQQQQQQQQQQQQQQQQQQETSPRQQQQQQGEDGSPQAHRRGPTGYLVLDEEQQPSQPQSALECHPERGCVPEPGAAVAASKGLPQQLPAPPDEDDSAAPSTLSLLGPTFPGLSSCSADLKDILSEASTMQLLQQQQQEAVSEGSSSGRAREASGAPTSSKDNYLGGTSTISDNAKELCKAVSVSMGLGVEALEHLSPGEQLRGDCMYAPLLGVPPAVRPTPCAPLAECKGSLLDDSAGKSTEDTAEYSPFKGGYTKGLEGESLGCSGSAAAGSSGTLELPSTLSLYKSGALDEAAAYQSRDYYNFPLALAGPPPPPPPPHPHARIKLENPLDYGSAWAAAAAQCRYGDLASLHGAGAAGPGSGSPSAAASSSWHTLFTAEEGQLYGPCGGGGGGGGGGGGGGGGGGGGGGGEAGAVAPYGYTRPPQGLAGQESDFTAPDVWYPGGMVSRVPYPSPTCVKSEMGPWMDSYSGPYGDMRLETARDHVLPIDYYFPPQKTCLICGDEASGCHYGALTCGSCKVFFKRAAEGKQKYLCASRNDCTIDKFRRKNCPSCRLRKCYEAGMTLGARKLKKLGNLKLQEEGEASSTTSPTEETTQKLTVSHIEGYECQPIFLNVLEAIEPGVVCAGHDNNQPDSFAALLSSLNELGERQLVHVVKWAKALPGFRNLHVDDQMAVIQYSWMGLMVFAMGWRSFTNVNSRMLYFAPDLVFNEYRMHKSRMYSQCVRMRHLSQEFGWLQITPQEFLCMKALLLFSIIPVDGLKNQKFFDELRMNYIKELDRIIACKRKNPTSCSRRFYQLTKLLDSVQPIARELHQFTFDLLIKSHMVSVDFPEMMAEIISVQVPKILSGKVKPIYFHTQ
Description: as §1, with “androgen” for “progestagenic”, “androgen” for “progesterone”, “(hAR),” for “B (hPRB),”, “5α-dihydrotestosterone” for “(16α)-16-ethyl-21-hydroxy-19-norpregn-4ene-3,20-dione”, “aL.,” for “al.,”

[4] = prior art statement; cited from earlier work
[5] = J. Seaman, Toxicologic Pathology (1985); cited from earlier work

Compound	oral activity (in words) (serum LH)	Progestational Activity (%) [1]	LH-Suppression MAD po (serum LH)	Androgenic Activity (%) [3]	other results
CCC1(O)CCCC2C3CCC4=CC(=O)CCC4C3CCC21CC [(17aβ)13,17a-diethyl-17a-hydroxy-D-homogon-4-en-3-one]	not orally active	–	–	–	–
CCC12CCC3C4CCC(=O)C=C4CCC3C1CCCC2(C)O [(17aβ)-13-ethyl-17a-hydroxy-17a-methyl-D-homogon-4-en-3-one]	not orally active	–	–	–	–
CCC12CCC3C4CCC(=O)C=C4CCC3C1CCCC2O [(17aβ)-13-ethyl-17a-hydroxy-D-homogon4-en-3-one]	not orally active	–	–	–	–
CC1CC2=CC(=O)CCC2C2CCC3(C)C(CCCC3(C)O)C12 [Cpd of Example 1, (7α,17aβ)-17a-hydroxy-7,17a-dimethyl-D-homoestr4-en-3-one]	–	53.3%	8.5 mg/kg	42.9%	Mean proportional difference in bone density ([2]; 8 mg/kg p.o. 6 weeks): 133%; BMD (gmean ± sem) ([2]; 8 mg/kg p.o. once daily 6 weeks): 255 ± 22
CCC1(O)CCCC2C3C(C)CC4=CC(=O)CCC4C3CCC21C [Cpd of Example 2, (7α,17aβ)-17aethyl-17a-hydroxy-7-methyl-D-homoestr-4en-3-one]	–	29.7%	10 mg/kg	9.9%	–
CC1(O)CCCC2C3CCC4=CC(=O)CCC4C3CCC21C [Reference compound A, (17aβ)-17a-Hydroxy-17a-methyl-D-homoestr-4-en-3-one]	low activity upon oral administration	98.0%	>30 mg/kg	71.6%	progestagenic activity (in words) [1]: progestagenic activity; Mean proportional difference in bone density ([2]; 16 mg/kg p.o. 6 weeks): 28%; BMD (gmean ± sem) ([2]; 16 mg/kg p.o. once daily 6 weeks): 133 ± 20; prevention of trabecular bone mineral density (BMD) loss (in words) ([2]; statement in the introduction): unable to prevent trabecular bone mineral density (BMD) loss
CC1CC2=CC(=O)CCC2C2CCC3(C)C(O)CCCC3C12 [Reference compound B, (7α,17aβ)-17a-Hydroxy-7-methyl-D-homoestr-4-en-3-one]	not orally active	10.6%	>30 mg/kg	25.3%	progestagenic activity (in words) [1]: mixed androgenic and progestagenic profile; androgenic activity (in words) ([3]; statement in the introduction, test not named): mixed androgenic and progestagenic profile
C[C@@H]1CC2=CC(=O)CC[C@@H]2[C@H]2CC[C@@]3(C)[C@@H](CC[C@]3(C)O)[C@@H]21 [Reference compound C, (7α,17β)-17-Hydroxy-7,17-dimethylestr-4-en-3-one]	–	45%	1.0 mg/kg	220%	oral activity (in words) [4]: orally active; liver toxicity (in words) [5]: severe liver toxicity

Source: patent publication US7582622B2 (N.V. Organon, priority 2003, dated 2009)
